The text below walks through data of publication PMC11089204 (Frontiers in Pharmacology, 2024).

Each structure is given as a SMILES string. Where a name gives a salt, the structure may show the parent alone.

Data set [1] is described as follows: Pharmacokinetics and metabolites in mouse plasma after oral psilocybin. Format: in vivo, C57BL/6J mice. The settings on record: for half-life / Cmax / Tmax: male, C57BL/6J, po; for half-life: mouse, plasma, read-out: elimination half-life t1/2 (mean ± SD) (converted); for Cmax: read-out: Cmax (mean ± SD); for Tmax: read-out: tmax (mean ± SD). The method, then: C57BL/6J adult male mice (Janvier, Le Genest-Saint-Isle, France) were maintained in littermate pairs in standard cages (containing sawdust, a sleeping chamber, tissue paper, and a wood stick) with water and pellet food available ad libitium. The colony room was on a reversed light-dark cycle (dark phase 07:00 to 19:00) with temperature at 22°C and humidity at 50–60%. A total of 10 mice were dosed orally with either 3 mg/kg bodyweight psilocybin (n = 5) or saline solution (n = 5). Dosing and blood sampling were conducted between 09:00 and 13:00. The mouse was placed in a plastic restrainer with the tail protruding through a hole in the end of the tube. The tail was immersed in warm water for 1 min for vasodilation and then a small incision was made on the lateral tail surface near the distal tip. 50 μL of blood was massaged gently into an EDTA-coated capillary blood tube (Mircovette, Sarstedt, Nümbrecht, Germany). The first (baseline) blood sample was collected directly before compound administration via oral gavage and the mouse was then returned to the home cage. Further blood samples were collected at 15, 30, 60, and 120 min post-treatment. Each sample was drawn from the same incision site, with mice maintained in the home cage in the intervening periods. The blood samples were stored on ice and centrifuged for 10 min at 780 × g and 4°C. Subsequently, the plasma was transferred into cryotubes (Protein LoBind, Eppendorf) and stored at −80 °C until analysis. All procedures were conducted under a permit for animal experimentation (ZH038/2022) issued by the Veterinary Office Zurich in accordance with the Animal Protection Act (1978) of Switzerland. The use of psilocybin was authorized by the Federal Office of Public Health (FOPH).
Pharmacokinetic parameters were calculated using Phoenix WinNonlin software (version 8.1.0, Certara, Princeton, USA). The elimination half-life (t1/2, min) was assessed as t1/2 = ln(2)/λ, while the elimination constant was calculated by linear regression in the terminal elimination phase. The maximal plasma concentration (Cmax, ng/mL) and the time to reach this concentration (tmax, h) were direct read-outs of the graphical plots.

Data set [2] addresses T1, MAO-A in human liver microsomes (HLM) (Homo sapiens, UniProt P21397).
T1 construct: tissue Corning Life Sciences B.V; host or cells: pooled human liver microsomes
T1 sequence (P21397 1-527): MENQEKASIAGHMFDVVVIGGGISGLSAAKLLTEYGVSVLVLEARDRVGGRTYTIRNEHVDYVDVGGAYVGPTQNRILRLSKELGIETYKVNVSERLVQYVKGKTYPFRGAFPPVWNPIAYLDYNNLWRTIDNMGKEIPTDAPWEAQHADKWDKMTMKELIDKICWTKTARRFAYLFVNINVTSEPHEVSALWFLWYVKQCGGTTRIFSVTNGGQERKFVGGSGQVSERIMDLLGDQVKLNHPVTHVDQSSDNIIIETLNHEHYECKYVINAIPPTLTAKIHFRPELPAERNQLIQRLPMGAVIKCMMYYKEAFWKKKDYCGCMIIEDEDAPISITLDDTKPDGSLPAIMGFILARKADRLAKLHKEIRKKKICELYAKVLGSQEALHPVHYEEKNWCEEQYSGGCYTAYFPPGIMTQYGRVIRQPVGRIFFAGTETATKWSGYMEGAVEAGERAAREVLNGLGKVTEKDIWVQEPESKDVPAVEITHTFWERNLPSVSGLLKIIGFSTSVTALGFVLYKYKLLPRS
The experiment in a line: Monoamine oxidase A inhibition in human liver microsomes. The settings on record: 5 μM kynuramine, t = 240 min. It counts as in vitro ADME.

The target of another data set is T2, recombinant MAO-A (Homo sapiens, UniProt P21397).
T2 construct: purchased Corning Life Sciences B.V
T2 sequence (P21397 1-527): T1 sequence (P21397 1-527)
The experiment in a line: Incubation with recombinant MAO-A enzymes. It counts as in vitro ADME. The method, then:
(§1) Corning UltraPool human liver microsomes (HLM) 150 (20 mg/mL), human intestinal microsomes (HIM) pool (10 mg/mL) as well as recombinant human CYP enzymes (with P450 oxidoreductase, OR) including CYP1A2+OR (0.5 nmol), CYP2B6+OR (0.5 nmol), CYP2C8+OR (1.0 nmol), CYP2C9*1+OR (1 nmol), CYP2C19+OR (0.5 nmol), CYP2D6*1+OR (0.5 nmol), CYP2E1+OR + cytochrome b5 (1 nmol), CYP3A4+OR + cytochrome b5 (0.5 nmol), MAO-A (5 mg/mL), MAO-B (5 mg/mL), and UGT1A10 (5 mg/mL) were purchased from Corning Life Sciences B.V (Amsterdam, Netherlands). All microsomes and recombinant enzyme solutions were aliquoted and stored at −80 °C until further use.
(§2) The MAO inhibition assay was based on the assay described in section 2.5.1 and performed identically if not otherwise stated.

A further data set has as its target T3, recombinant MAO-B (Homo sapiens, UniProt P27338).
T3 construct: purchased Corning Life Sciences B.V
T3 sequence (P27338 1-520): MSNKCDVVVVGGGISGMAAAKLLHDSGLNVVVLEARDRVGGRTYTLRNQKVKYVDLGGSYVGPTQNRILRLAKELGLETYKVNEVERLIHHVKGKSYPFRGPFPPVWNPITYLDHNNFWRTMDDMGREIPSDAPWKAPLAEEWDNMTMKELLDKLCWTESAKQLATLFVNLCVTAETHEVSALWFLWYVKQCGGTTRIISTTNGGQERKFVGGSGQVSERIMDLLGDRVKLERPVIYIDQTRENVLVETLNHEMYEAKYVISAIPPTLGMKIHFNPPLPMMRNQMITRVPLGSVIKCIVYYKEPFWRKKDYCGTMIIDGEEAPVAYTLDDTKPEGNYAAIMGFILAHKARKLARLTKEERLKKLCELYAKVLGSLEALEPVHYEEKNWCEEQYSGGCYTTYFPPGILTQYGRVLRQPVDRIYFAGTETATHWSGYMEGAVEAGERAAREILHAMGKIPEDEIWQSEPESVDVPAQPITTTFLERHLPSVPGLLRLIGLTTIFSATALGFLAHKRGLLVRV
The experiment in a line: Incubation with recombinant MAO-B enzymes. Format: in vitro ADME. Here is the method: as §1, §2

Data set [3] relates to human intestinal microsomes (HIM). As to the kind of experiment: Glucuronidation with human intestinal microsomes. It counts as in vitro ADME. The settings on record: HIM. The method, then: as §1, with “use. Co-factors including NADPH regenerating system solution A (25 mM NADP+, 66 mM glucose-6-phosphate, and 66 mM MgCl2 in water), NADPH regenerating system solution B (40 U/mL glucose-6-phosphate dehydrogenase in 5 mM sodium citrate), UGT reaction mix solution A (25 mM uridine 5′-diphospho-glucuronic acid in water), and UGT reaction mix solution B (250 mM Tris-HCl, 40 mM MgCl2, and 0.125 mg/mL alamethicin in water) were also obtained from Corning Life Sciences B.V.” for “use.”
The assay described in section 2.5.1 was adjusted to suit the glucuronidation system. […] HLM were diluted as described in section 2.5.1, while HIM or UGT1A10 enzymes were diluted 1:40 (end concentration […] and 0.125 mg/mL, respectively) in the reaction mix. Sampling time points were adjusted to 0, 15, 30, 60, 90, 120, 180, and 240 min.

For data set [4], the target named is T4, recombinant human UGT1A10 (Homo sapiens, UniProt Q9HAW8).
T4 construct: purchased Corning Life Sciences B.V
T4 sequence (Q9HAW8 26-530): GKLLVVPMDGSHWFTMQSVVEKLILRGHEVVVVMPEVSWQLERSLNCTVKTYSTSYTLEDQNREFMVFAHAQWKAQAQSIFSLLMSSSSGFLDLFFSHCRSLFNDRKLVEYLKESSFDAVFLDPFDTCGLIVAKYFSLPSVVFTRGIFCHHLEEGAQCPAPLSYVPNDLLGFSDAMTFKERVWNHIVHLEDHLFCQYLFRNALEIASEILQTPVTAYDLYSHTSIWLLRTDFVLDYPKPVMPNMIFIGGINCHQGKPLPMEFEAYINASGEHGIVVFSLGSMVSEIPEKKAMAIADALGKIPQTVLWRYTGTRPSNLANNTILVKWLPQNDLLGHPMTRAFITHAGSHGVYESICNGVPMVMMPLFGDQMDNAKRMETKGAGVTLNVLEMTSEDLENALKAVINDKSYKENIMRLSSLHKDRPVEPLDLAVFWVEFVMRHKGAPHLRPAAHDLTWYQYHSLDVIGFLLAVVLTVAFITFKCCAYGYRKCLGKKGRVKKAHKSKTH
As to the kind of experiment: Glucuronidation with recombinant UGT1A10. It counts as in vitro ADME. Here is the method:
as §1
The assay described in section 2.5.1 was adjusted to suit the glucuronidation system.

For data set [5] the following is noted: ref Holze et al., 2022a, cited from earlier work.
The mark [6] stands for this setting: 3 mg/kg, mouse plasma, 3 mg/kg psilocybin p.o., n = 5.
[7] abbreviates: mouse plasma, 3 mg/kg psilocybin p.o., n = 5.
Where [8] appears, read: 1,000 nM DMT, rec. MAO-A, t = 240 min.
The mark [9] stands for this setting: 1,000 nM DMT, rec. MAO-B, t = 240 min.

The Cmax is the maximum level reached in the sampled fluid or tissue. The term Tmax denotes the time from dosing to the highest level. For `O=C(O)Cc1c[nH]c2cccc(OC3O[C@H](C(=O)O)[C@@H](O)[C@H](O)[C@H]3O)c12` (stereo partly drawn) [4-HIAA-glucuronide], the half-life in data set [1] (setting [6]) is 82.8 ± 16.2 min. Further, in data set [1] (setting [7]), the peak concentration (Cmax) was found to be 30 ± 6.7 ng/mL and the Tmax was found to be 27 ± 6.6 min.

For the compound `Oc1ccnc2ccccc12` [4-HQ, 4-hydroxyquinoline], the “4-HQ concentration formed from kynuramine” value in data set [2] (HLM with clorgyline) is 347 ± 67 nM; in data set [2] (HLM), 1,974 ± 302 nM; on recombinant MAO-A (5 μM kynuramine, rec. MAO-A, t = 300 min) it was 2,694 ± 264 nM; on recombinant MAO-B (5 μM kynuramine, rec. MAO-B, t = 240 min), 4,692 ± 891 nM.

For the compound `CN(C)CCc1c[nH]c2ccccc12` [DMT, N,N-dimethyltryptamine], the DMT concentration is recorded as 907 ± 31 nM at recombinant MAO-A (1,000 nM DMT, rec. MAO-A, t = 0 min); 110 ± 29 nM at recombinant MAO-A (setting [8]); 915 ± 11 nM at recombinant MAO-A (rec. MAO-A with clorgyline, t = 0 min); 853 ± 69 nM at recombinant MAO-A (rec. MAO-A with clorgyline, t = 240 min); 940 ± 47 nM at recombinant MAO-B (1,000 nM DMT, rec. MAO-B, t = 0 min); 816 ± 56 nM on recombinant MAO-B (setting [9]). Besides, the DMT concentration is given as 954 ± 73 nM on recombinant MAO-B (rec. MAO-B with R-deprenyl, t = 0 min) and 1,008 ± 58 nM at recombinant MAO-B (rec. MAO-B with R-deprenyl, t = 240 min).

As to `O=C(O)Cc1c[nH]c2ccccc12` [IAA, indole-3-acetic acid], the entries for the “IAA concentration formed from DMT” value at recombinant MAO-A (setting [8]) and at recombinant MAO-B (setting [9]) were 30.3 ± 4.2 nM and 11.5 ± 4.5 nM, respectively.

`O=C1Nc2c(O)cc(Cl)cc2[C@@](C#CC2CC2)(C(F)(F)F)O1` [OH-efavirenz, 8-hydroxy-efavirenz]: the OH-efavirenz glucuronidated in data set [3] (over 240 min, control condition) worked out at 99%; in data set [4] (rec. UGT1A10, over 240 min, control condition), 98%. The OH-efavirenz peak area in data set [3] (t = 0) is reported as 45,300 ± 5,766 counts; in data set [3] (t = 240 min), 470 ± 394 counts; in data set [4] (rec. UGT1A10, t = 0), 41,700 ± 10,936 counts; in data set [4] (rec. UGT1A10, t = 240 min) it was 1,007 ± 155 counts.

On to `NCCC(=O)c1ccccc1N` [kynuramine, kynuramine dihydrobromide], for which the kynuramine signal at recombinant MAO-A (rec. MAO-A, t = 0 min) is on record as 135,200 ± 23,816 counts; at recombinant MAO-A (rec. MAO-A, t = 300 min), 48,503 ± 12,251 counts; at recombinant MAO-B (rec. MAO-B, t = 0 min), 82,853 ± 11,336 counts; on recombinant MAO-B (rec. MAO-B, t = 240 min), 9,533 ± 8,311 counts.

On to `CN(C)CCc1c[nH]c2cccc(OC3O[C@H](C(=O)O)[C@@H](O)[C@H](O)[C@H]3O)c12` (stereo partly drawn) [psilocin-O-glucuronide], for which the half-life in data set [1] (setting [6]) was 58.2 ± 3.6 min. Moreover, in data set [1] (setting [7]), the Cmax is 521 ± 57 ng/mL and the Tmax stood at 21 ± 8.4 min. Also, the “mean Cmax relative to psilocin (higher)” value in data set [1] (mouse plasma, 3 mg/kg psilocybin p.o.) stood at 2.6 fold. For the same compound, the “elimination half-life t1/2 (mean ± SD)” value in data set [1] (mouse plasma, 3 mg/kg psilocybin p.o., n = 5, 3 mg/kg) was around 60 min. In addition, in data set [1] (mouse versus human), the “half-life in mice relative to humans (lower)” value is recorded as “around 4 fold”. The “plasma concentrations of conjugated psilocin relative to free psilocin (higher)” value in data set [5] (clinical studies) is recorded as “around 4 fold”. Also, the “fraction of administered psilocybin dose excreted in urine” value in data set [5] (humans, oral psilocybin, within 24 h (time not stated for 4-HIAA)) was “Approximately 20%”. Also, the half-life in humans entry in data set [5] (humans) is “around 4 h”.
